The record followed here is publication PMC5218480 (PLoS ONE, 2017).

In this experiment the test system is MV-4-11 cells. Description: Gene expression microarray analysis (Affymetrix PrimeView) and GSEA. The experiment is classed as cell-based, human. Details: RFU PODN (11730768_x_at) / Fold change /veh PODN (11730768_x_at) / RFU LINC00158 (11744669_a_at) / Fold change /veh LINC00158 (11744669_a_at) / RFU DUSP10 (11751237_a_at) / Fold change /veh DUSP10 (11751237_a_at) / RFU ID3 (11757404_x_at) / Fold change /veh ID3 (11757404_x_at) / RFU PLEKHG5 (11737974_s_at) / Fold change /veh PLEKHG5 (11737974_s_at) / RFU LRRC4B (11730491_at) / Fold change /veh LRRC4B (11730491_at) / RFU GIMAP4 (11747438_a_at) / Fold change /veh GIMAP4 (11747438_a_at) / RFU KRT8 (11758183_x_at) / Fold change /veh KRT8 (11758183_x_at) / RFU CNN1 (11734310_a_at) / Fold change /veh CNN1 (11734310_a_at) / RFU VPS37D (11726825_at) / Fold change /veh VPS37D (11726825_at) / RFU C10orf10 (11716522_x_at) / Fold change /veh C10orf10 (11716522_x_at) / RFU KIR2DL2 /// KIR2DL4 /// KIR2DL5A /// KIR2DL5B /// KIR2DS1 /// KIR2DS2 /// KIR2DS3 /// KIR2DS4 /// KIR3DL3 /// KIR3DL3 /// KIR3DS1 (11738374_at) / Fold change /veh KIR2DL2 /// KIR2DL4 /// KIR2DL5A /// KIR2DL5B /// KIR2DS1 /// KIR2DS2 /// KIR2DS3 /// KIR2DS4 /// KIR3DL3 /// KIR3DL3 /// KIR3DS1 (11738374_at) / RFU C1QL1 (11718748_at) / Fold change /veh C1QL1 (11718748_at) / RFU TMPRSS4 (11747572_a_at) / Fold change /veh TMPRSS4 (11747572_a_at) / RFU HAMP (11756126_x_at) / Fold change /veh HAMP (11756126_x_at) / RFU RNFT2 (11725882_a_at) / Fold change /veh RNFT2 (11725882_a_at) / RFU NR4A2 (11747474_a_at) / Fold change /veh NR4A2 (11747474_a_at) / RFU ABCC12 (11746883_a_at) / Fold change /veh ABCC12 (11746883_a_at) / RFU TMEM136 (11760407_x_at) / Fold change /veh TMEM136 (11760407_x_at) / RFU CLDN22 /// WWC2 (11732394_at) / Fold change /veh CLDN22 /// WWC2 (11732394_at) / RFU HLA-DPB1 (11760878_x_at) / Fold change /veh HLA-DPB1 (11760878_x_at) / RFU SPINT1 (11716480_a_at) / Fold change /veh SPINT1 (11716480_a_at) / RFU GAP43 (11754022_s_at) / Fold change /veh GAP43 (11754022_s_at) / RFU A4GNT (11735810_at) / Fold change /veh A4GNT (11735810_at) / RFU PRB3 (11715151_x_at) / Fold change /veh PRB3 (11715151_x_at) / RFU TUBB4B (11761932_at) / Fold change /veh TUBB4B (11761932_at) / RFU CAPN14 (11732068_a_at) / Fold change /veh CAPN14 (11732068_a_at) / RFU TMCC2 (11721928_a_at) / Fold change /veh TMCC2 (11721928_a_at) / RFU IRGQ (11745062_a_at) / Fold change /veh IRGQ (11745062_a_at) / RFU FAM174B (11720279_a_at) / Fold change /veh FAM174B (11720279_a_at) / RFU TMPRSS4 (11748680_a_at) / Fold change /veh TMPRSS4 (11748680_a_at) / RFU FAM212B (11763350_a_at) / Fold change /veh FAM212B (11763350_a_at) / RFU PLEKHG5 (11743358_a_at) / Fold change /veh PLEKHG5 (11743358_a_at) / RFU ZSCAN30 (11745921_a_at) / Fold change /veh ZSCAN30 (11745921_a_at) / RFU CMKLR1 (11741424_a_at) / Fold change /veh CMKLR1 (11741424_a_at) / RFU LOC101060620 /// MAPK8IP1 (11723275_at) / Fold change /veh LOC101060620 /// MAPK8IP1 (11723275_at) / RFU SPTSSB (11747773_x_at) / Fold change /veh SPTSSB (11747773_x_at) / RFU PRSS12 (11739890_at) / Fold change /veh PRSS12 (11739890_at) / RFU BIN1 (11741810_x_at) / Fold change /veh BIN1 (11741810_x_at) / RFU WNT11 (11732464_a_at) / Fold change /veh WNT11 (11732464_a_at) / RFU C10orf10 (11716521_a_at) / Fold change /veh C10orf10 (11716521_a_at) / RFU C5orf56 (11738089_at) / Fold change /veh C5orf56 (11738089_at) / RFU CYB561 (11721691_x_at) / Fold change /veh CYB561 (11721691_x_at) / RFU ANKRD19P (11752326_a_at) / Fold change /veh ANKRD19P (11752326_a_at) / RFU OR2T12 /// OR2T33 /// OR2T8 (11738714_s_at) / Fold change /veh OR2T12 /// OR2T33 /// OR2T8 (11738714_s_at) / RFU VCAN (11748164_a_at) / Fold change /veh VCAN (11748164_a_at) / RFU JSRP1 (11732532_at) / Fold change /veh JSRP1 (11732532_at) / RFU KRTAP10-11 (11738290_x_at) / Fold change /veh KRTAP10-11 (11738290_x_at) / RFU MYO3A (11730013_a_at) / Fold change /veh MYO3A (11730013_a_at) / RFU EBF3 (11725865_a_at) / Fold change /veh EBF3 (11725865_a_at) / RFU CAMK2N1 (11719241_x_at) / Fold change /veh CAMK2N1 (11719241_x_at) / RFU C5orf56 (11738088_a_at) / Fold change /veh C5orf56 (11738088_a_at) / RFU OLFML3 (11715873_a_at) / Fold change /veh OLFML3 (11715873_a_at) / RFU LOC100653217 /// NTM (11731650_a_at) / Fold change /veh LOC100653217 /// NTM (11731650_a_at) / RFU MAPK11 (11762145_a_at) / Fold change /veh MAPK11 (11762145_a_at) / RFU FIZ1 (11724087_x_at) / Fold change /veh FIZ1 (11724087_x_at) / RFU OASL (11726364_x_at) / Fold change /veh OASL (11726364_x_at) / RFU SOX15 (11748057_x_at) / Fold change /veh SOX15 (11748057_x_at) / RFU CD79A (11719716_a_at) / Fold change /veh CD79A (11719716_a_at) / RFU HIST1H1D (11736915_at) / Fold change /veh HIST1H1D (11736915_at) / RFU CASKIN2 (11723855_a_at) / Fold change /veh CASKIN2 (11723855_a_at) / RFU LOC730098 (11760151_x_at) / Fold change /veh LOC730098 (11760151_x_at) / RFU OR4N2 (11742367_at) / Fold change /veh OR4N2 (11742367_at) / RFU PRRT2 (11749266_a_at) / Fold change /veh PRRT2 (11749266_a_at) / RFU SNX32 (11753110_a_at) / Fold change /veh SNX32 (11753110_a_at) / RFU CDHR5 (11726645_a_at) / Fold change /veh CDHR5 (11726645_a_at) / RFU RCAN1 (11760418_a_at) / Fold change /veh RCAN1 (11760418_a_at) / RFU FAM167A (11723789_a_at) / Fold change /veh FAM167A (11723789_a_at) / RFU FAM26E (11764081_at) / Fold change /veh FAM26E (11764081_at) / RFU ISYNA1 (11749810_s_at) / Fold change /veh ISYNA1 (11749810_s_at) / RFU ACY1 (11761880_at) / Fold change /veh ACY1 (11761880_at) / RFU 11764098_at / Fold change /veh 11764098_at / RFU SAMD14 (11745864_x_at) / Fold change /veh SAMD14 (11745864_x_at) / RFU NPB (11741838_a_at) / Fold change /veh NPB (11741838_a_at) / RFU TMPRSS6 (11731388_a_at) / Fold change /veh TMPRSS6 (11731388_a_at) / RFU KRTAP10-2 (11738614_at) / Fold change /veh KRTAP10-2 (11738614_at) / RFU ARHGAP8 /// PRR5-ARHGAP8 (11727945_x_at) / Fold change /veh ARHGAP8 /// PRR5-ARHGAP8 (11727945_x_at) / RFU KRTAP5-7 /// NADSYN1 (11734609_at) / Fold change /veh KRTAP5-7 /// NADSYN1 (11734609_at) / RFU RASL12 (11751679_a_at) / Fold change /veh RASL12 (11751679_a_at) / RFU CDKN2B (11736163_a_at) / Fold change /veh CDKN2B (11736163_a_at) / RFU PRF1 (11729649_at) / Fold change /veh PRF1 (11729649_at) / RFU, ZNF638 /// ZNF638-IT1 / Fold change vs veh, ZNF638 /// ZNF638-IT1 / RFU, PANK3 / Fold change vs veh, PANK3 / RFU, SH3YL1 / Fold change vs veh, SH3YL1 / RFU, ZEB2 / Fold change vs veh, ZEB2 / RFU, NRIP1 / Fold change vs veh, NRIP1 / RFU, PTTG1IP / Fold change vs veh, PTTG1IP / RFU, CAPN2 / Fold change vs veh, CAPN2 / RFU, MED14 / Fold change vs veh, MED14 / RFU, SNORA58 / Fold change vs veh, SNORA58 / RFU, C1orf63 / Fold change vs veh, C1orf63 / RFU, LRRFIP1 / Fold change vs veh, LRRFIP1 / RFU, NDUFAF7 / Fold change vs veh, NDUFAF7 / RFU, SLC12A2 / Fold change vs veh, SLC12A2 / RFU, IBTK / Fold change vs veh, IBTK / RFU, ESF1 / Fold change vs veh, ESF1 / Fold change vs veh, TMEM50B / RFU, TAOK1 / Fold change vs veh, TAOK1 / RFU, ACBD3 / Fold change vs veh, ACBD3 / RFU, TMA16 / Fold change vs veh, TMA16 / RFU, RWDD3 / Fold change vs veh, RWDD3 / RFU, BCAT1 / Fold change vs veh, BCAT1 / RFU, EDEM3 / Fold change vs veh, EDEM3 / RFU, TMEM33 / Fold change vs veh, TMEM33 / RFU, WDR75 / Fold change vs veh, WDR75 / RFU, AHCTF1 / Fold change vs veh, AHCTF1 / RFU, TFRC / Fold change vs veh, TFRC / RFU, ZDHHC17 / Fold change vs veh, ZDHHC17 / RFU, NOM1 / Fold change vs veh, NOM1 / RFU, ARL8B / Fold change vs veh, ARL8B / RFU, ZBTB11 / Fold change vs veh, ZBTB11 / RFU, TAMM41 / Fold change vs veh, TAMM41 / RFU, KIAA1704 /// LOC100996395 / Fold change vs veh, KIAA1704 /// LOC100996395 / RFU, ING1 / Fold change vs veh, ING1 / RFU, TRMT61B / Fold change vs veh, TRMT61B / RFU, FUBP3 / Fold change vs veh, FUBP3 / RFU, TP53 / Fold change vs veh, TP53 / RFU, TNKS2 / Fold change vs veh, TNKS2 / RFU, ZFP14 / Fold change vs veh, ZFP14 / RFU, ACTR2 / Fold change vs veh, ACTR2 / RFU, PPP3R1 / Fold change vs veh, PPP3R1 / RFU, PIK3R1 / Fold change vs veh, PIK3R1 / RFU, HNRNPA1 / Fold change vs veh, HNRNPA1 / RFU, RNF170 / Fold change vs veh, RNF170 / RFU, ZNF28 / Fold change vs veh, ZNF28 / RFU, RNGTT / Fold change vs veh, RNGTT / RFU, OGT / Fold change vs veh, OGT / RFU, BRD1 / Fold change vs veh, BRD1 / RFU, MARS / Fold change vs veh, MARS / RFU, ZNF655 / Fold change vs veh, ZNF655 / RFU, FAHD1 / Fold change vs veh, FAHD1 / RFU, BDP1 / Fold change vs veh, BDP1 / RFU, LRRCC1 / Fold change vs veh, LRRCC1 / RFU, ARID1A / Fold change vs veh, ARID1A / RFU, ZNF146 / Fold change vs veh, ZNF146 / RFU, ZNF330 / Fold change vs veh, ZNF330 / RFU, GPN3 / Fold change vs veh, GPN3 / RFU, C9orf123 / Fold change vs veh, C9orf123 / RFU, N4BP2L2 / Fold change vs veh, N4BP2L2 / RFU, ARFIP1 / Fold change vs veh, ARFIP1 / RFU, FAM179B / Fold change vs veh, FAM179B / RFU, BCL10 / Fold change vs veh, BCL10 / RFU, UHRF1BP1L / Fold change vs veh, UHRF1BP1L / RFU, BET1 / Fold change vs veh, BET1 / RFU, CNOT2 / Fold change vs veh, CNOT2 / RFU, ZNF268 / Fold change vs veh, ZNF268 / Fold change vs veh, ZNF507 / RFU, DGCR2 / Fold change vs veh, DGCR2 / RFU, WDSUB1 / Fold change vs veh, WDSUB1 / Fold change vs veh, HSP90B1 /// MIR3652 / RFU, ADSS / Fold change vs veh, ADSS / RFU, GK / Fold change vs veh, GK / RFU, ZNF148 / Fold change vs veh, ZNF148 / RFU, TAF9 / Fold change vs veh, TAF9 / RFU, SLC1A5 / Fold change vs veh, SLC1A5 / RFU, SLMO2 / Fold change vs veh, SLMO2 / RFU, ABCC4 / Fold change vs veh, ABCC4 / RFU, LOC101060439 /// RAP1B / Fold change vs veh, LOC101060439 /// RAP1B / RFU, RFX7 / Fold change vs veh, RFX7 / RFU, GTPBP10 / Fold change vs veh, GTPBP10 / RFU, CNEP1R1 / Fold change vs veh, CNEP1R1 / RFU, BIVM-ERCC5 /// ERCC5 / Fold change vs veh, BIVM-ERCC5 /// ERCC5 / RFU, ILF3 / Fold change vs veh, ILF3 / RFU 11762660_at / Fold change /veh 11762660_at / RFU VCAN (11757783_s_at) / Fold change /veh VCAN (11757783_s_at) / RFU DDX43 (11728927_at) / Fold change /veh DDX43 (11728927_at) / RFU KRT8 (11758188_x_at) / Fold change /veh KRT8 (11758188_x_at) / RFU NKD1 (11759106_at) / Fold change /veh NKD1 (11759106_at) / RFU SRD5A1 (11742802_a_at) / Fold change /veh SRD5A1 (11742802_a_at) / RFU TPSAB1 /// TPSB2 (11721975_s_at) / Fold change /veh TPSAB1 /// TPSB2 (11721975_s_at) / RFU GSTM3 (11746129_a_at) / Fold change /veh GSTM3 (11746129_a_at) / RFU IL23R (11737362_x_at) / Fold change /veh IL23R (11737362_x_at) / RFU TMEM51 (11727254_a_at) / Fold change /veh TMEM51 (11727254_a_at) / RFU PIWIL2 (11732686_x_at) / Fold change /veh PIWIL2 (11732686_x_at) / RFU ORM1 (11744905_x_at) / Fold change /veh ORM1 (11744905_x_at) / RFU CCDC152 (11743942_at) / Fold change /veh CCDC152 (11743942_at) / RFU ECM1 (11717891_a_at) / Fold change /veh ECM1 (11717891_a_at) / RFU IL23R (11748794_a_at) / Fold change /veh IL23R (11748794_a_at) / RFU TNFAIP8L3 (11732012_x_at) / Fold change /veh TNFAIP8L3 (11732012_x_at) / RFU MBOAT4 (11741988_at) / Fold change /veh MBOAT4 (11741988_at) / RFU 11764193_at / Fold change /veh 11764193_at / RFU TMEM53 (11763286_at) / Fold change /veh TMEM53 (11763286_at) / RFU MAGEB2 (11727129_at) / Fold change /veh MAGEB2 (11727129_at) / RFU TMEM200A (11744735_a_at) / Fold change /veh TMEM200A (11744735_a_at) / RFU CCDC152 (11751479_a_at) / Fold change /veh CCDC152 (11751479_a_at) / RFU FAM211A (11726209_a_at) / Fold change /veh FAM211A (11726209_a_at) / RFU RGS16 (11746705_a_at) / Fold change /veh RGS16 (11746705_a_at) / RFU VCAN (11755009_s_at) / Fold change /veh VCAN (11755009_s_at) / RFU RHOB (11743442_s_at) / Fold change /veh RHOB (11743442_s_at) / RFU RGS16 (11720943_a_at) / Fold change /veh RGS16 (11720943_a_at) / RFU RGS16 (11720944_at) / Fold change /veh RGS16 (11720944_at) / RFU, VPS4B / Fold change vs veh, VPS4B / RFU, CREB1 / Fold change vs veh, CREB1 / RFU, DNAJC13 / Fold change vs veh, DNAJC13 / RFU, GNAQ / Fold change vs veh, GNAQ / RFU, CDK5R1 / Fold change vs veh, CDK5R1 / RFU, ZRANB3 / Fold change vs veh, ZRANB3 / RFU, CUL4A / Fold change vs veh, CUL4A / RFU, CCNY / Fold change vs veh, CCNY / RFU, UFL1 / Fold change vs veh, UFL1 / RFU, COG3 / Fold change vs veh, COG3 / RFU, DIAPH2 / Fold change vs veh, DIAPH2 / RFU, SKA2 / Fold change vs veh, SKA2 / RFU, AFF3 / Fold change vs veh, AFF3 / RFU, LMF1 / Fold change vs veh, LMF1 / RFU, IPO11 / Fold change vs veh, IPO11 / RFU, DFFB / Fold change vs veh, DFFB / RFU, FOXP1 / Fold change vs veh, FOXP1 / RFU, CARD8 / Fold change vs veh, CARD8 / RFU, STRN3 / Fold change vs veh, STRN3 / RFU, ADK / Fold change vs veh, ADK / RFU, RASSF2 / Fold change vs veh, RASSF2 / RFU, WIPF1 / Fold change vs veh, WIPF1 / RFU, LARP1B / Fold change vs veh, LARP1B / RFU, RASA1 / Fold change vs veh, RASA1 / RFU, RB1 / Fold change vs veh, RB1 / RFU, PPFIA1 / Fold change vs veh, PPFIA1 / RFU, MAT2A / Fold change vs veh, MAT2A / RFU, CCT5 / Fold change vs veh, CCT5 / RFU, WDR92 / Fold change vs veh, WDR92 / RFU, CUX1 / Fold change vs veh, CUX1 / RFU, TTC7A / Fold change vs veh, TTC7A / RFU, TMEM135 / Fold change vs veh, TMEM135 / RFU, DEPTOR / Fold change vs veh, DEPTOR / RFU, CPM / Fold change vs veh, CPM / RFU, DNAJB6 / Fold change vs veh, DNAJB6 / RFU, CACNA2D3 / Fold change vs veh, CACNA2D3 / RFU, DTX4 / Fold change vs veh, DTX4 / RFU, TFCP2 / Fold change vs veh, TFCP2 / RFU, GMCL1 /// GMCL1P1 / Fold change vs veh, GMCL1 /// GMCL1P1 / RFU, AEBP2 / Fold change vs veh, AEBP2 / RFU, SNHG1 /// SNORD22 /// SNORD25 /// SNORD26 /// SNORD27 /// SNORD28 /// SNORD29 /// SNORD31 / Fold change vs veh, SNHG1 /// SNORD22 /// SNORD25 /// SNORD26 /// SNORD27 /// SNORD28 /// SNORD29 /// SNORD31 / Fold change (Aza/veh), C12orf56 (ProbeSet 11735607_a_at) / Fold change (ACY-1035/veh), C12orf56 (ProbeSet 11735607_a_at) / Fold change (Aza/veh), FGFR1OP (ProbeSet 11751329_s_at) / Fold change (ACY-1035/veh), FGFR1OP (ProbeSet 11751329_s_at) / Fold change (Aza/veh), VPS36 (ProbeSet 11739960_a_at) / Fold change (ACY-1035/veh), VPS36 (ProbeSet 11739960_a_at) / RFU SYPL1 (11715823_x_at) / Fold change /veh SYPL1 (11715823_x_at) / RFU IGFBP7 (11715501_s_at) / Fold change /veh IGFBP7 (11715501_s_at) / RFU REEP3 (11722064_at) / Fold change /veh REEP3 (11722064_at) / RFU IGLL1 (11728026_x_at) / Fold change /veh IGLL1 (11728026_x_at): dose or concentration left out as unconfirmed. The settings on record: MV-4-11 cells, 48 hours.

As for `Nc1ncn([C@@H]2O[C@H](CO)[C@@H](O)[C@H]2O)c(=O)n1` [azacitidine], the “RFU NPB (11741838_a_at)” value was found to be 80.08 RFU.
